ChEMBL document CHEMBL1148264, “Evaluation of series of isobenzofuranone dimers as PKCalpha ligands: implication for the distance between the two ligand binding sites” (Bioorg Med Chem Lett, 2004)

The compounds below were run against Protein kinase C alpha type (Homo sapiens) (UniProt P17252) (assay: Displacement of [3H]PDBu from protein kinase C alpha at 100 uM; Range 20 to 40).

For CC(=O)OC[C@@]1(CO)OC(=O)c2c(OCCCCCCCCCCCCCCCCCCCCCCOc3cccc4c3C(=O)O[C@]4(CO)COC(C)=O)cccc21, the inhibition was 25%.

What follows are compounds tested against Protein kinase C alpha type (Homo sapiens) (UniProt P17252) (assay: Displacement of [3H]PDBu from protein kinase C alpha at 100 uM; Range 40 to 60).

First: O=C(CCCCCCCCCCCCCCC(=O)OC[C@@]1(CO)OC(=O)c2c(OCc3ccccc3)cccc21)CC[C@@]1(CO)OC(=O)c2c(OCc3ccccc3)cccc21
Second: O=C(CCCCCCCCC(=O)OC[C@@]1(CO)OC(=O)c2c(OCc3ccccc3)cccc21)CC[C@@]1(CO)OC(=O)c2c(OCc3ccccc3)cccc21
The inhibition of the first is higher: 54% for the first, 41% for the second.

First: CC(=O)OC[C@@]1(CO)OC(=O)c2c(OCCCCCCCCCCCOc3cccc4c3C(=O)O[C@]4(CO)COC(C)=O)cccc21
Second: CC(=O)OC[C@@]1(CO)OC(=O)c2c(OCCCCCCCCCCOc3cccc4c3C(=O)O[C@]4(CO)COC(C)=O)cccc21
The inhibition of the first is higher: 60% for the first, 45% for the second.

CC(=O)OC[C@@]1(CO)OC(=O)c2c(OCCCCCCCCCOc3cccc4c3C(=O)O[C@]4(CO)COC(C)=O)cccc21 was tested, and the inhibition was 42%.

What follows are compounds tested against Protein kinase C alpha type (Homo sapiens) (UniProt P17252) (assay: Displacement of [3H]PDBu from protein kinase C alpha at 100 uM; Range 80 to 100).

Going from CCCCCCCCCCCC(=O)OC[C@@]1(CO)OC(=O)c2c(OCc3ccccc3)cccc21 to CC(=O)OC[C@@]1(CO)OC(=O)c2c(OCCCCCCCCCCCCCOc3cccc4c3C(=O)O[C@]4(CO)COC(C)=O)cccc21, the inhibition falls from 90% to 85%.

Going from CC(=O)OC[C@@]1(CO)OC(=O)c2c(OCCCCCCCCCCCCCCCCOc3cccc4c3C(=O)O[C@]4(CO)COC(C)=O)cccc21 to CC(=O)OC[C@@]1(CO)OC(=O)c2c(OCCCCCCCCCCCCCCCOc3cccc4c3C(=O)O[C@]4(CO)COC(C)=O)cccc21, the inhibition rises from 91% to 92%.

Work on CC(=O)OC[C@@]1(CO)OC(=O)c2c(OCCCCCCCCCCCCCCOc3cccc4c3C(=O)O[C@]4(CO)COC(C)=O)cccc21 yielded an inhibition of 90%.

These compounds were tested against Protein kinase C alpha type (Homo sapiens) (UniProt P17252) (assay: Displacement of [3H]PDBu from protein kinase C alpha at 100 uM; Range 60 to 80).

O=C(CCCCCCCCCCC(=O)OC[C@@]1(CO)OC(=O)c2c(OCc3ccccc3)cccc21)CC[C@@]1(CO)OC(=O)c2c(OCc3ccccc3)cccc21 and O=C(CCCCCCCCCCCCC(=O)OC[C@@]1(CO)OC(=O)c2c(OCc3ccccc3)cccc21)CC[C@@]1(CO)OC(=O)c2c(OCc3ccccc3)cccc21 are the same in inhibition: 70% for the first, 70% for the second.

CC(=O)OC[C@@]1(CO)OC(=O)c2c(OCCCCCCCCCCCCOc3cccc4c3C(=O)O[C@]4(CO)COC(C)=O)cccc21 and CCCCCCCCCCCCOc1cccc2c1C(=O)O[C@]2(CO)COC(C)=O are the same in inhibition: 70% for the first, 70% for the second.

Each compound was assayed against Protein kinase C alpha type (Homo sapiens) (UniProt P17252) (assay: Displacement of [3H]PDBu from protein kinase C alpha at 100 uM; Range 0 to 20).

First: O=C(CC[C@@]1(CO)OC(=O)c2c(OCc3ccccc3)cccc21)c1cccc(C(=O)OC[C@@]2(CO)OC(=O)c3c(OCc4ccccc4)cccc32)c1
Second: O=C(CC[C@@]1(CO)OC(=O)c2c(OCc3ccccc3)cccc21)c1ccc(C(=O)OC[C@@]2(CO)OC(=O)c3c(OCc4ccccc4)cccc32)cc1
The inhibition of the first is higher: 4% for the first, 2% for the second.

First: O=C(CCCCCCC(=O)OC[C@@]1(CO)OC(=O)c2c(OCc3ccccc3)cccc21)CC[C@@]1(CO)OC(=O)c2c(OCc3ccccc3)cccc21
Second: O=C(CCCCC(=O)OC[C@@]1(CO)OC(=O)c2c(OCc3ccccc3)cccc21)CC[C@@]1(CO)OC(=O)c2c(OCc3ccccc3)cccc21
The inhibition of the first is higher: 19% for the first, 18% for the second.

First: O=C(CCCCCCCCCCCCCCCCCCC(=O)OC[C@@]1(CO)OC(=O)c2c(OCc3ccccc3)cccc21)CC[C@@]1(CO)OC(=O)c2c(OCc3ccccc3)cccc21
Second: O=C(CC[C@@]1(CO)OC(=O)c2c(OCc3ccccc3)cccc21)c1ccccc1C(=O)OC[C@@]1(CO)OC(=O)c2c(OCc3ccccc3)cccc21
The inhibition of the first is higher: 10% for the first, 4% for the second.

CC(=O)OC[C@@]1(CO)OC(=O)c2c(OCCCCCCCCCCCCCCCCCCCCCCCCOc3cccc4c3C(=O)O[C@]4(CO)COC(C)=O)cccc21 was tested, and the inhibition was 19%.

Each compound was assayed against Protein kinase C alpha type (Homo sapiens) (UniProt P17252) (assay: Displacement of [3H]PDBu from protein kinase C alpha at 100 uM; Range 20 to 30).

O=C(CCCCCCCCCCCCCCCCC(=O)OC[C@@]1(CO)OC(=O)c2c(OCc3ccccc3)cccc21)CC[C@@]1(CO)OC(=O)c2c(OCc3ccccc3)cccc21 was tested, and the inhibition was 30%.

What follows are compounds tested against Protein kinase C alpha type (Homo sapiens) (UniProt P17252) (assay: Displacement of [3H]PDBu from protein kinase C alpha at 100 uM; Range 2 to 40).

In the case of CC(=O)OC[C@@]1(CO)OC(=O)c2c(OCc3ccccc3)cccc21, the inhibition is reported as 30%.
